Holding throughout (type): biochemical
In experiment [1] the target is α-L-Rhamnosidase (P. decumbens). Briefly: α-L-Rhamnosidase (P. decumbens) inhibition. The method, then:
(§1) With rat intestinal maltase as an exception, other enzymes were purchased from Sigma-Aldrich Chemical Co. (St. Louis, MO, USA). Brush border membranes prepared from rat small intestine according to the method of Kessler et al. were assayed at pH 6.8 for rat intestinal maltase using maltose. The released D-glucose was determined colorimetrically using the Glucose CII-test Wako (Wako Pure Chemical Ind.; Osaka, Japan). Other glycosidase activities were determined using an appropriate p-nitrophenyl glycoside as substrate in a buffer solution at the optimal pH value of each enzyme. The reaction was stopped by adding 400 mM Na2CO3. The released p-nitrophenol was measured spectrometrically at 400 nm.

Another experiment has as its target β-Glucosidase (Almond). Briefly: β-Glucosidase (almond) inhibition. The method, then: as §1
The target of experiment [2] is β-Glucosidase (Bovine liver). Briefly: β-Glucosidase (bovine liver) inhibition. As for the experimental part:
as §1

In experiment [3] the target is β-N-Acetylgalactosaminidase (HL60). Briefly: β-N-Acetylgalactosaminidase (HL60) inhibition. The method, then: as §1
Experiment [4] deals with β-N-Acetylhexosaminidase (HL60). The experiment in a line: β-N-Acetylhexosaminidase (HL60) inhibition. As to conditions: for IC50: β-N-Acetylhexosaminidase (β-GlcNAcase). As for the experimental part: as §1
The next experiment addresses Rat intestinal maltase. The experiment in a line: Rat intestinal maltase inhibition. The conditions noted are these: α-Glucosidase. As for the experimental part: as §1
Experiment [5] deals with T1, α-Mannosidase (Jack bean) (Canavalia ensiformis, UniProt C0HJB3).
T1 construct: purchased Sigma-Aldrich Chemical Co
T1 sequence (C0HJB3 1-981): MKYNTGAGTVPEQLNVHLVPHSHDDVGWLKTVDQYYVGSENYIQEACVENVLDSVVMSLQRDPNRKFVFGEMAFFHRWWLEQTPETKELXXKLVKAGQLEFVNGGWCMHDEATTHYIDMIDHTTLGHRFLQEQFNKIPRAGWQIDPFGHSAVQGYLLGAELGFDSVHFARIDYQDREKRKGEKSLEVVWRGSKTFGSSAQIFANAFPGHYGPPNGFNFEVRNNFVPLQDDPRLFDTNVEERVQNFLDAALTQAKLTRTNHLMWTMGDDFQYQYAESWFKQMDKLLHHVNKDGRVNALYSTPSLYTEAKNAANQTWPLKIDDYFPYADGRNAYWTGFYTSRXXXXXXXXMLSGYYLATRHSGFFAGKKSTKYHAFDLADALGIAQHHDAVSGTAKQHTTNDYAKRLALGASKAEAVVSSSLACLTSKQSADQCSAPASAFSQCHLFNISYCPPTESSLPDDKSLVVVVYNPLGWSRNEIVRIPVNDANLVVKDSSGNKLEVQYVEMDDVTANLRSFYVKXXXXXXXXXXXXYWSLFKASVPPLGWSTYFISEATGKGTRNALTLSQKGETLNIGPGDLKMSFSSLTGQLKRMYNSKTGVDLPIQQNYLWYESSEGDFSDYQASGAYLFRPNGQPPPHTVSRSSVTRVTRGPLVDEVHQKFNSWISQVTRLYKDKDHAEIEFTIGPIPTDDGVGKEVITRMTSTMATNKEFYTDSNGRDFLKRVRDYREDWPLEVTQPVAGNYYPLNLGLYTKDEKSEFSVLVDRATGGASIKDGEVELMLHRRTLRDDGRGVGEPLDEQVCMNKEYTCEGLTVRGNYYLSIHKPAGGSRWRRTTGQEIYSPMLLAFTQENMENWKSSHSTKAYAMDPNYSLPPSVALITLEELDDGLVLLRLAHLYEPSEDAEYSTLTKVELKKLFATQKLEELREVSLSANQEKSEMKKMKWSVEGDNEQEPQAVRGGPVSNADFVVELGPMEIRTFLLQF
Briefly: α-Mannosidase (Jack bean) inhibition. As for the experimental part:
as §1

Experiment [6] has as its target T2, β-Galactosidase (Bovine liver) (Bos taurus, UniProt F1MNT6).
T2 sequence (F1MNT6 1-469): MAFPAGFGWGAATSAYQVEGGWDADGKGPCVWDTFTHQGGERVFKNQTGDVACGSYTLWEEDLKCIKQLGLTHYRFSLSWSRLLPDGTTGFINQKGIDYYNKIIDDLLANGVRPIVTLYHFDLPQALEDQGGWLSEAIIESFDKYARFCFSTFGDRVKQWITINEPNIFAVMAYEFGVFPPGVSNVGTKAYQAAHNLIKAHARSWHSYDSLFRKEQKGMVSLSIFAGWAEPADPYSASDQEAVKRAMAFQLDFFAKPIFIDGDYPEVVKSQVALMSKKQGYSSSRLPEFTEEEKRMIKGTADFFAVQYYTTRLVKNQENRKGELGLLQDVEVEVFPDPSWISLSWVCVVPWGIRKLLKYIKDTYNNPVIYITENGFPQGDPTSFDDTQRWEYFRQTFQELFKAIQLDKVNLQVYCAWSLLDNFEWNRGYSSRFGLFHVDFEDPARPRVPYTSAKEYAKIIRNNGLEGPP
Briefly: β-Galactosidase (bovine liver) inhibition. As for the experimental part: as §1

In experiment [7] the target is T3, Amyloglucosidase (A. niger) (Aspergillus niger, UniProt P69328).
T3 construct: purchased Sigma-Aldrich Chemical Co
T3 sequence (P69328 25-640): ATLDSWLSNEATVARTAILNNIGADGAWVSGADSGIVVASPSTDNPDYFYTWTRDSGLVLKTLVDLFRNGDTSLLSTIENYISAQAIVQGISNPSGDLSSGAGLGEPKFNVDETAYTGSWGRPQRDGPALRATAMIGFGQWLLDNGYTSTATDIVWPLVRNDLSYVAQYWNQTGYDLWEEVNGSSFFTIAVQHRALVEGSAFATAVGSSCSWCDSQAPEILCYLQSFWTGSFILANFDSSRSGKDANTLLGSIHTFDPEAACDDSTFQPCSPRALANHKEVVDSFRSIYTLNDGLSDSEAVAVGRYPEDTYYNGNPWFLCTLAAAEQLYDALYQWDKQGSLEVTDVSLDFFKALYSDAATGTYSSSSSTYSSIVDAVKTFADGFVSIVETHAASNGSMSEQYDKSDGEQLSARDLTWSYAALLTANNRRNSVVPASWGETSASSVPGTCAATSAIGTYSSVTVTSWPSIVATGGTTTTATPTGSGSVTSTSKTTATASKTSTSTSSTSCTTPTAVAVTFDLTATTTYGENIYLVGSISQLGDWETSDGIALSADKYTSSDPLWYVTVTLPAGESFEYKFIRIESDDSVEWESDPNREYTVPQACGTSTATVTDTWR
Briefly: Amyloglucosidase (A. niger) inhibition. The method, then: as §1

A further experiment addresses T4, α-Glucosidase (Rice) (Oryza sativa subsp. japonica, UniProt Q653V7).
T4 construct: purchased Sigma-Aldrich Chemical Co
The experiment in a line: α-Glucosidase (rice) inhibition. The method, then:
as §1

The target of experiment [8] is T5, α,α-Trehalase (Porcine kidney) (Sus scrofa, UniProt I3LIR5).
T5 construct: purchased Sigma-Aldrich Chemical Co; host or cells: porcine kidney
T5 sequence (I3LIR5 24-583): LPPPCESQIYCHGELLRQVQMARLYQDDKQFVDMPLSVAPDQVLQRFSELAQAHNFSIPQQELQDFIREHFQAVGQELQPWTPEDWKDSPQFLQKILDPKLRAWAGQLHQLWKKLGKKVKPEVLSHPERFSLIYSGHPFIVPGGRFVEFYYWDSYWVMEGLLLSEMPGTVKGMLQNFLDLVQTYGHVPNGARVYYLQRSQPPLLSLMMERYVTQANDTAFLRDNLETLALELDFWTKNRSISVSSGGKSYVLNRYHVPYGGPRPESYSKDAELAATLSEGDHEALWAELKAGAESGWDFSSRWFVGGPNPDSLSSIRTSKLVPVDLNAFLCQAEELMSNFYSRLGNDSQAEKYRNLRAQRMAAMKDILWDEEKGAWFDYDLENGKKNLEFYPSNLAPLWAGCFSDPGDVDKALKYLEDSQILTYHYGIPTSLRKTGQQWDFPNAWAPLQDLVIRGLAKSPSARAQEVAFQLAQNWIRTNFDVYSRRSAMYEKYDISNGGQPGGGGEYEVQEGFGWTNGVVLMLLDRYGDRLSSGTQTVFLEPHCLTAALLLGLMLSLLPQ
Briefly: α,α-Trehalase (porcine kidney) inhibition. The method, then:
as §1

Setting [9] is: 1000 μM, read-out: Inhibition % at 1000 μM.

Structures can show the parent of a compound that is named as a salt. Where two headings read alike, the source gives them in different places.

T4 sequence (Q653V7 34-885): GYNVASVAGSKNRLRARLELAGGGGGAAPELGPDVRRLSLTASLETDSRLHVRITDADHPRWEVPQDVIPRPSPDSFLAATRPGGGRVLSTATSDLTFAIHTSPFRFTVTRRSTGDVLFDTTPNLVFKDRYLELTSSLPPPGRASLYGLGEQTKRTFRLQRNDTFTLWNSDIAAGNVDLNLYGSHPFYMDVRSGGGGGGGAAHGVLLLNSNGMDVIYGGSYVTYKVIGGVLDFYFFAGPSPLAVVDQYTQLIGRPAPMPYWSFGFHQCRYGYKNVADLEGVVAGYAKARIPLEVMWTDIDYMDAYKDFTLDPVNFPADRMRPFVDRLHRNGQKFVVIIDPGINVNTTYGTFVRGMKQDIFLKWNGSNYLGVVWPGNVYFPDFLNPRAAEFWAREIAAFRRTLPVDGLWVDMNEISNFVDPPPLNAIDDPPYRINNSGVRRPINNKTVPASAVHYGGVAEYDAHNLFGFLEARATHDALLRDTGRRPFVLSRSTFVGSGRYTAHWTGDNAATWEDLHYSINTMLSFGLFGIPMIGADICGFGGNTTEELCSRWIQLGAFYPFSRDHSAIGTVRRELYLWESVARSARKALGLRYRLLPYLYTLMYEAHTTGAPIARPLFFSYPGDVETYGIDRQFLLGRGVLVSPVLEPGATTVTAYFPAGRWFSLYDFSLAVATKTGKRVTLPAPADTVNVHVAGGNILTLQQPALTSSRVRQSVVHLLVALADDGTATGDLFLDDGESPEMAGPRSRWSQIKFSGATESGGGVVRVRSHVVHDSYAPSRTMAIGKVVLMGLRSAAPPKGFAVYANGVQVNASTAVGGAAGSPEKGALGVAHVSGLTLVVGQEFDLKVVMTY

For orientation: IC50 means the point on the concentration scale where inhibition reaches its midpoint. `CC(=O)NC[C@H]1N[C@H](CO)[C@H](O)[C@@H]1O` [D-10, 1-N-acetylamino-2,5-imino-1,2,5-trideoxy-D-altritol hydrochloride]: the IC50 entry in experiment [1] was “NI (No Inhibition (less than 50% at 1000 μM))”; on β-Glucosidase (Almond), “NI (No Inhibition (less than 50% at 1000 μM))”; in [2] it was “NI (2.4%) (No Inhibition (less than 50% at 1000 μM))”; in [3] (read-out: IC50) it was 8.8 µM; in experiment [4] (read-out: IC50), 10 µM; on Rat intestinal maltase, “NI (9.24%) (No Inhibition (less than 50% at 1000 μM))”. Further, half-maximal inhibition in experiment [5] (IC50) required 205 µM. For the same compound, the “Inhibition % at 1000 μM” value in experiment [1] came out at 8.3%; with β-Glucosidase (Almond), 41.0%. For the same compound, the inhibition at 1000 µM in [6] (setting [9]) is 3.3%; in experiment [6] (read-out: IC50), less than 50%; in experiment [7] (setting [9]), 3.8%; in [7] (read-out: IC50) it was less than 50%; at α-Glucosidase (Rice) (setting [9]) it was 26.1%; on α-Glucosidase (Rice) (read-out: IC50) it was less than 50%. Besides, the figures for the inhibition at 1000 µM in [8] (setting [9]) and in experiment [8] (read-out: IC50) were 0% and less than 50%, respectively.
On to `CC(=O)NC[C@@H]1N[C@@H](CO)[C@H](O)[C@H]1O` [A-10, 1-N-acetylamino-2,5-imino-1,2,5-trideoxy-L-mannitol hydrochloride], for which the IC50 result was “NI (No Inhibition (less than 50% at 1000 μM))” in experiment [1]; “NI (No Inhibition (less than 50% at 1000 μM))” on β-Glucosidase (Almond); “NI (No Inhibition (less than 50% at 1000 μM))” in experiment [2]; “NI (No Inhibition (less than 50% at 1000 μM))” in [3]; “NI (No Inhibition (less than 50% at 1000 μM))” in experiment [4]; 92 µM on Rat intestinal maltase (read-out: IC50). Also, at α-Glucosidase (Rice), the IC50 worked out at 568 µM. The “Inhibition % at 1000 μM” value in experiment [1] was found to be 10.1%; in the experiment on β-Glucosidase (Almond), 16.1%; in experiment [2] (1000 μM) it was 2.0%; in experiment [3] (1000 μM), 13.0%; in [4] (β-N-Acetylhexosaminidase, 1000 μM), 12.7%. For the same compound, the inhibition at 1000 µM in [5] (setting [9]) is 0%; in experiment [5] (read-out: IC50), less than 50%; in experiment [6] (setting [9]), 1.6%; in experiment [6] (read-out: IC50), less than 50%; in experiment [7] (setting [9]) it was 5.5%; in experiment [7] (read-out: IC50), less than 50%. The inhibition at 1000 µM was 4.3% in [8] (setting [9]) and less than 50% in experiment [8] (read-out: IC50).

Values taken from PMC7180638, “Synthesis of Pyrrolidine Monocyclic Analogues of Pochonicine and Its Stereoisomers: Pursuit of Simplified Structures and Potent β-N-Acetylhexosaminidase Inhibition” (Molecules, 2020).
